In ChEMBL document CHEMBL4190215, “Ochracenes A-I, Humulane-Derived Sesquiterpenoids from the Antarctic Fungus Aspergillus ochraceopetaliformis” (J Nat Prod, 2017):
The source made the active and inactive calls. The rule behind the calls is not given here.

Columns and labels:
HL-60 = test: Cytotoxicity against human HL60 cells assessed as reduction in cell viability up to 100 uM after 72 hrs by CCK-8 assay; type: functional, cell-based
DU-145 = test: Cytotoxicity against human DU145 cells assessed as reduction in cell viability up to 100 uM after 72 hrs by CCK-8 assay; type: functional, cell-based
Influenza A virus [1] = test: Antiviral activity against influenza A virus H3N2 assessed as inhibition of virus-induced cytopathic effect up to 100 uM after 48 hrs by crystal violet staining based assay; type: functional, organism-based
U-937 [2] = test: Cytotoxicity against human U937 cells assessed as reduction in cell viability up to 100 uM after 72 hrs by CCK-8 assay; type: functional, cell-based
RAW264.7 = test: Inhibition of LPS-induced NO production in mouse RAW264.7 cells after 24 hrs by Griess assay; type: functional, cell-based; settings: RAW264.7, 24 h
Influenza A virus [3] = test: Antiviral activity against influenza A virus H1N1 assessed as inhibition of virus-induced cytopathic effect up to 100 uM after 48 hrs by crystal violet staining based assay; type: functional, organism-based
HeLa = test: Cytotoxicity against human HeLa cells assessed as reduction in cell viability up to 100 uM after 72 hrs by CCK-8 assay; type: functional, cell-based
HT-29 [4] = test: Cytotoxicity against human HT-29 cells assessed as reduction in cell viability up to 100 uM after 72 hrs by CCK-8 assay; type: functional, cell-based
A549 = test: Cytotoxicity against human A549 cells assessed as reduction in cell viability up to 100 uM after 72 hrs by CCK-8 assay; type: functional, cell-based
K562 = test: Cytotoxicity against human K562 cells assessed as reduction in cell viability up to 100 uM after 72 hrs by CCK-8 assay; type: functional, cell-based
MCF7 = test: Cytotoxicity against human MCF7 cells assessed as reduction in cell viability up to 100 uM after 72 hrs by CCK-8 assay; type: functional, cell-based
U-937 [5] = test: Cytotoxicity against human U937 cells assessed as reduction in cell viability after 72 hrs by CCK-8 assay; type: functional, cell-based; settings: U-937, 72 h
HT-29 [6] = test: Cytotoxicity against human HT-29 cells assessed as reduction in cell viability after 72 hrs by CCK-8 assay; type: functional, cell-based; settings: HT-29, 72 h

| SMILES | Activity (HL-60) | Activity (DU-145) | inhibition (Influenza A virus [1]) | Activity (U-937 [2]) | IC50 (RAW264.7) [µM] | inhibition (Influenza A virus [3]) | Activity (HeLa) | Activity (HT-29 [4]) | Activity (A549) | Activity (K562) | Activity (MCF7) | IC50 (U-937 [5]) [µM] | IC50 (HT-29 [6]) [µM] |
| --- | --- | --- | --- | --- | --- | --- | --- | --- | --- | --- | --- | --- | --- |
| CC1=CC([C@@H](CCC(=O)O)C(=O)O)=C(C)CC[C@@H]1C | inactive | inactive | inactive | inactive | 18.3 | inactive | inactive | inactive | inactive | inactive | inactive |  |  |
| C[C@H]1CC[C@]2(C)C(=CCC[C@H]2O)C=C1CO | inactive | inactive | inactive | inactive |  | inactive | inactive | inactive | inactive | inactive | inactive |  |  |
| C[C@H]1CC[C@@]2(C)C=CC(=O)C=C2C=C1C(=O)O | inactive | inactive | inactive | inactive |  | inactive | inactive | inactive | inactive | inactive | inactive |  |  |
| COC(OC)C1=CC2=CC(=O)C=C[C@]2(C)CC[C@@H]1C | inactive | inactive | inactive | inactive |  | inactive | inactive | inactive | inactive | inactive | inactive |  |  |
| CC(=O)O[C@H]1C(=O)[C@@]2(C)[C@H]([C@H](OC(=O)c3ccccc3)[C@]3(O)C[C@H](OC(=O)[C@H](O)[C@@H](NC(=O)c4ccccc4)c4ccccc4)C(C)=C1C3(C)C)[C@]1(OC(C)=O)CO[C@@H]1C[C@@H]2O [PACLITAXEL] |  |  |  |  |  |  |  |  |  |  |  | 0.0017 | 0.003 |
| C[C@H]1CC[C@]2(C)C(=CCC[C@H]2O)C=C1C(=O)O | inactive | inactive | inactive | inactive |  | inactive | inactive | inactive | inactive | inactive | inactive |  |  |
| C[C@@H]1C[C@H]2[C@@H]3CCC4=CC(=O)C=C[C@]4(C)[C@@]3(F)[C@@H](O)C[C@]2(C)[C@@]1(O)C(=O)CO [DEXAMETHASONE] |  |  |  |  | 2.5 |  |  |  |  |  |  |  |  |
| C[C@H]1CC[C@@]2(C)C=CC(=O)C=C2C=C1C=O | inactive | inactive | inactive | inactive |  | inactive | inactive | inactive | inactive | inactive | inactive |  |  |
| CC1=CC([C@@H](CCCO)C(=O)O)=C(C)CC[C@@H]1C | inactive | inactive | inactive | inactive | 14.6 | inactive | inactive | inactive | inactive | inactive | inactive |  |  |
| CC1=CC[C@@]2(C)[C@H](O)CC[C@@H](C(=O)O)[C@@H]2C=C1C | inactive | inactive | inactive | inactive |  | inactive | inactive | inactive | inactive | inactive | inactive |  |  |
| C[C@H]1CC[C@@]2(C)C=CC(=O)C=C2C=C1CO | inactive | inactive | inactive | inactive |  | inactive | inactive | inactive | inactive | inactive | inactive |  |  |
